Values after ≈ are worked out from the molar mass of the structure shown.
Tests used:
HEL [1] = assay: Cytotoxicity (to alter cell morphology) against Cytomegalovirus in human embryonic lung (HEL) cells; assay type: functional
HEL [2] = assay: Antiviral activity against Cytomegalovirus (AD-169 strain) to reduce plaque formation in human embryonic lung (HEL) cells; assay type: functional, cell-based
HEL [3] = assay: Antiviral activity against Cytomegalovirus (Davis strain) to reduce plaque formation in human embryonic lung (HEL) cells; assay type: functional, cell-based
[4] = Cytotoxicity (to reduce cell growth) against Cytomegalovirus in human embryonic lung (HEL) cells; assay type: cell-based
E6SM [5] = assay: Cytotoxicity (to alter cell morphology) against E6SM cell cultures; assay type: functional; conditions: Homo sapiens
E6SM [6] = assay: Antiviral activity (to reduce virus-induced cytopathogenicity) against Herpes simplex virus-1 TK-B2006 in E6SM cell cultures; assay type: functional; conditions: Homo sapiens
E6SM [7] = assay: Antiviral activity (to reduce virus-induced cytopathogenicity) against Herpes simplex virus-1 TK-VMW1837 in E6SM cell cultures; assay type: functional; conditions: Homo sapiens
E6SM [8] = assay: Antiviral activity (to reduce virus-induced cytopathogenicity) against Herpes simplex virus-1(KOS) in E6SM cell cultures; assay type: functional; conditions: Homo sapiens
E6SM [9] = assay: Antiviral activity (to reduce virus-induced cytopathogenicity) against Herpes simplex virus-2 (G) in E6SM cell cultures; assay type: functional; conditions: Homo sapiens
E6SM [10] = assay: Antiviral activity (to reduce virus-induced cytopathogenicity) against Vaccinia virus in E6SM cell cultures; assay type: functional; conditions: Homo sapiens
E6SM [11] = assay: Antiviral activity (to reduce virus-induced cytopathogenicity) against Vesicular stomatitis virus in E6SM cell cultures; assay type: functional; conditions: Homo sapiens
HEL [12] = assay: Cytotoxicity (to alter cell morphology) against Varicella-Zoster virus in human embryonic lung (HEL) cells; assay type: functional
HEL [13] = assay: Antiviral activity against thymidine kinase-negative (TK-) O7/1 strain of Varicella zoster virus to reduce plaque formation in human embryonic lung (HEL) cells; assay type: functional, cell-based
HEL [14] = assay: Antiviral activity against thymidine kinase-negative (TK-) YS/R strain of Varicella zoster virus to reduce plaque formation in human embryonic lung (HEL) cells; assay type: functional, cell-based
HEL [15] = assay: Antiviral activity against thymidine kinase-positive (TK+) OKA strain of Varicella zoster virus to reduce plaque formation in human embryonic lung (HEL) cells; assay type: functional, cell-based
HEL [16] = assay: Antiviral activity against thymidine kinase-positive (TK+) YS strain of Varicella zoster virus to reduce plaque formation in human embryonic lung (HEL) cells; assay type: functional, cell-based
[17] = Cytotoxicity (to reduce cell growth) against Varicella-Zoster virus in human embryonic lung (HEL) cells; assay type: cell-based
HeLa [18] = assay: Antiviral activity (to reduce virus-induced cytopathogenicity) against Coxsackie virus B4 in HeLa cells; assay type: functional; conditions: Homo sapiens
HeLa [19] = assay: Antiviral activity (to reduce virus-induced cytopathogenicity) against Polio virus-I in HeLa cells; assay type: functional; conditions: Homo sapiens
HeLa [20] = assay: Antiviral activity (to reduce virus-induced cytopathogenicity) against Vesicular stomatitis virus in HeLa cells; assay type: functional; conditions: Homo sapiens
HeLa [21] = assay: Cytotoxicity (to alter cell morphology) against HeLa cells; assay type: functional; conditions: Homo sapiens
Vero [22] = assay: Minimum cytotoxic concentration (to alter cell morphology) against vero cells; assay type: functional; conditions: Chlorocebus sabaeus
Vero [23] = assay: Antiviral activity (to reduce virus-induced cytopathogenicity) against Parainfluenza-3 virus in vero cells; assay type: functional; conditions: Chlorocebus sabaeus
Vero [24] = assay: Antiviral activity (to reduce virus-induced cytopathogenicity) against Reovirus-1 in vero cells; assay type: functional; conditions: Chlorocebus sabaeus
Vero [25] = assay: Antiviral activity (to reduce virus-induced cytopathogenicity) against forest virus in vero cells; assay type: functional; conditions: Chlorocebus sabaeus
Vero [26] = assay: Antiviral activity (to reduce virus-induced cytopathogenicity) against Sindbis virus in vero cells; assay type: functional; conditions: Chlorocebus sabaeus
Vero [27] = assay: Antiviral activity (to reduce virus-induced cytopathogenicity) against Coxsackie virus in vero cells; assay type: functional; conditions: Chlorocebus sabaeus

Compound | MCC (HEL [1]) | IC50 (HEL [2]) | IC50 (HEL [3]) | MCC (E6SM [5]) | MIC (E6SM [6]) | MIC (E6SM [7]) | MIC (E6SM [8]) | MIC (E6SM [9]) | MIC (E6SM [10]) | MIC (E6SM [11]) | MIC (HeLa [18]) | MIC (HeLa [19]) | MIC (HeLa [20]) | MCC (HeLa [21]) | MCC (Vero [22]) | MIC (Vero [23]) | MIC (Vero [24]) | MIC (Vero [25]) | MIC (Vero [26]) | MIC (Vero [27]) | also measured
Nc1nc2c(ncn2COC(CO)CO)c(=O)[nH]1 [GANCICLOVIR] | > 100 µg/mL | 2 µg/mL (≈ 7.84 µM) | 1.5 µg/mL (≈ 5.88 µM) |  |  |  |  |  |  |  |  |  |  |  |  |  |  |  |  |  | CC50 [4]: 200 µg/mL (≈ 784 µM)
Cc1ccn2c(CSCCO)cnc2c1 | 40 µg/mL | > 10 µg/mL | > 10 µg/mL | > 200 µg/mL | > 100 µg/mL | > 100 µg/mL | > 200 µg/mL | > 100 µg/mL | > 100 µg/mL | > 100 µg/mL | > 10 µg/mL | > 10 µg/mL | > 10 µg/mL | 10 µg/mL | 100 µg/mL | 70 µg/mL (≈ 315 µM) | > 40 µg/mL | > 100 µg/mL | 70 µg/mL (≈ 315 µM) | > 100 µg/mL | MCC (HEL [12]): 40 µg/mL; IC50 (HEL [13]): 4 µg/mL (≈ 18 µM); IC50 (HEL [14]): 7 µg/mL (≈ 31.5 µM); IC50 (HEL [15]): 10 µg/mL (≈ 45 µM); IC50 (HEL [16]): 6 µg/mL (≈ 27 µM); CC50 [4]: 70 µg/mL (≈ 315 µM); CC50 [17]: 70 µg/mL (≈ 315 µM)
NC(=O)c1ncn([C@@H]2O[C@H](CO)[C@@H](O)[C@H]2O)n1 [RIBAVIRIN] |  |  |  | > 400 µg/mL | 300 µg/mL (≈ 1230 µM) | 300 µg/mL (≈ 1230 µM) | > 400 µg/mL | 150 µg/mL (≈ 614 µM) | 70 µg/mL (≈ 287 µM) | 150 µg/mL (≈ 614 µM) | 70 µg/mL (≈ 287 µM) | 70 µg/mL (≈ 287 µM) | 20 µg/mL (≈ 81.9 µM) | > 400 µg/mL | > 400 µg/mL | 70 µg/mL (≈ 287 µM) | 100 µg/mL (≈ 409 µM) | 70 µg/mL (≈ 287 µM) | 70 µg/mL (≈ 287 µM) | 300 µg/mL (≈ 1230 µM) | 
O=c1[nH]c(=O)n([C@H]2C[C@H](O)[C@@H](CO)O2)cc1/C=C/Br [BRIVUDINE] |  |  |  | > 400 µg/mL | 2 µg/mL (≈ 6 µM) | 1 µg/mL (≈ 3 µM) | 0.004 µg/mL (≈ 0.012 µM) | 20 µg/mL (≈ 60 µM) | 0.2 µg/mL (≈ 0.6 µM) | > 400 µg/mL | > 400 µg/mL | > 400 µg/mL | > 400 µg/mL | > 400 µg/mL | > 400 µg/mL | > 400 µg/mL | > 400 µg/mL | > 400 µg/mL | > 400 µg/mL | > 400 µg/mL | 
OCCOCc1c(-c2ccccc2)nc2ccccn12 | 100 µg/mL | > 40 µg/mL | > 40 µg/mL | > 200 µg/mL | > 100 µg/mL | > 100 µg/mL | > 200 µg/mL | > 200 µg/mL | > 200 µg/mL | > 100 µg/mL | > 200 µg/mL | > 200 µg/mL | > 200 µg/mL | 400 µg/mL | 400 µg/mL | 70 µg/mL (≈ 261 µM) | > 200 µg/mL | > 200 µg/mL | > 200 µg/mL | > 200 µg/mL | MCC (HEL [12]): > 40 µg/mL; IC50 (HEL [13]): > 40 µg/mL; IC50 (HEL [14]): > 40 µg/mL; IC50 (HEL [15]): > 40 µg/mL; IC50 (HEL [16]): > 40 µg/mL; CC50 [4]: 130 µg/mL (≈ 485 µM); CC50 [17]: 135 µg/mL (≈ 503 µM)
Nc1nccc2c1ncn2[C@@H]1O[C@H](CO)[C@@H](O)[C@H]1O |  |  |  | > 400 µg/mL | 200 µg/mL (≈ 751 µM) | > 400 µg/mL | > 400 µg/mL | 300 µg/mL (≈ 1130 µM) | 0.7 µg/mL (≈ 2.63 µM) | 0.7 µg/mL (≈ 2.63 µM) | > 400 µg/mL | > 400 µg/mL | 2 µg/mL (≈ 7.51 µM) | > 400 µg/mL | > 400 µg/mL | 0.7 µg/mL (≈ 2.63 µM) | 2 µg/mL (≈ 7.51 µM) | > 400 µg/mL | 4 µg/mL (≈ 15 µM) | > 400 µg/mL | 
Cc1ccn2c(COCCO)cnc2c1 | > 40 µg/mL | > 40 µg/mL | > 40 µg/mL | > 400 µg/mL | > 400 µg/mL | > 400 µg/mL | > 400 µg/mL | > 400 µg/mL | > 400 µg/mL | > 400 µg/mL | > 200 µg/mL | > 200 µg/mL | > 200 µg/mL | 200 µg/mL | > 200 µg/mL | > 200 µg/mL | > 200 µg/mL | > 200 µg/mL | > 200 µg/mL | > 200 µg/mL | MCC (HEL [12]): > 40 µg/mL; IC50 (HEL [13]): > 40 µg/mL; IC50 (HEL [14]): > 40 µg/mL; IC50 (HEL [15]): > 40 µg/mL; IC50 (HEL [16]): > 40 µg/mL; CC50 [4]: > 200 µg/mL; CC50 [17]: > 200 µg/mL
Nc1ncnc2c1ncn2C[C@H](O)CO [(S)-DHPA] |  |  |  | > 400 µg/mL | 200 µg/mL (≈ 956 µM) | 100 µg/mL (≈ 478 µM) | 100 µg/mL (≈ 478 µM) | > 400 µg/mL | 40 µg/mL (≈ 191 µM) | 40 µg/mL (≈ 191 µM) | > 400 µg/mL | > 400 µg/mL | 70 µg/mL (≈ 335 µM) | > 400 µg/mL | > 400 µg/mL | 20 µg/mL (≈ 95.6 µM) | 40 µg/mL (≈ 191 µM) | > 400 µg/mL | > 400 µg/mL | > 400 µg/mL | 
OCCSCc1c(-c2ccccc2)nc2ccccn12 | > 40 µg/mL | 20 µg/mL (≈ 70.3 µM) | 25 µg/mL (≈ 87.9 µM) | > 200 µg/mL | > 40 µg/mL | > 40 µg/mL | 100 µg/mL (≈ 352 µM) | 70 µg/mL (≈ 246 µM) | 70 µg/mL (≈ 246 µM) | > 40 µg/mL | > 100 µg/mL | > 100 µg/mL | > 100 µg/mL | > 100 µg/mL | 40 µg/mL | > 10 µg/mL | > 10 µg/mL | 20 µg/mL (≈ 70.3 µM) | 20 µg/mL (≈ 70.3 µM) | 70 µg/mL (≈ 246 µM) | MCC (HEL [12]): > 40 µg/mL; IC50 (HEL [13]): 26 µg/mL (≈ 91.4 µM); IC50 (HEL [14]): 10 µg/mL (≈ 35.2 µM); IC50 (HEL [15]): 28 µg/mL (≈ 98.5 µM); IC50 (HEL [16]): 35 µg/mL (≈ 123 µM); CC50 [4]: 80 µg/mL (≈ 281 µM); CC50 [17]: 80 µg/mL (≈ 281 µM)
Nc1nc2c(ncn2COCCO)c(=O)[nH]1 [ACYCLOVIR] |  |  |  |  |  |  |  |  |  |  |  |  |  |  |  |  |  |  |  |  | MCC (HEL [12]): > 40 µg/mL; IC50 (HEL [14]): 9 µg/mL (≈ 40 µM); IC50 (HEL [15]): 0.23 µg/mL (≈ 1.02 µM); IC50 (HEL [16]): 0.32 µg/mL (≈ 1.42 µM); CC50 [17]: > 50 µg/mL
